Data set [1] is described as follows: ADME/PK profile across tested species. The format is in vivo. The source says: (§1) GastroPlus modeling predicted dissolution and/or solubility limitations of the free form of Compound A at high doses.
The nature of data set [2]: Solubility and dissolution rate of the free form in biorelevant media. The class given is physicochemical.
Excerpt: as §1

The nature of data set [3]: Hygroscopicity, water uptake by DVS. The format is physicochemical. The procedure:
(§2) Solubility of the fumarate in FaSSIF is 0.09 mg/mL and 0.21 mg/mL in FeSSIF. […] The maximum water uptake by DVS is less than 0.1% up to 95% RH at 25° C.

Data set [4] is described as follows: Disproportionation (XRPD) of ASAP batches. The format is physicochemical. The procedure:
The compatibility of Compound A fumarate was further evaluated in 21 days ASAP study involving three different formulation principles, wet granulation, dry blending and roller compaction. The drug load selected for study was 5% w/w, translating to 6.40% w/w of fumarate salt. The XRPD of the samples were evaluated at certain time intervals according to the Safety Protocol in Table 5.
The analysis was done for the samples stored at 21 days.

A short description of data set [5]: pHmax of the fumarate salt. The format is physicochemical. The conditions noted are these: estimated. The text has this: The pHmax of the fumarate salt is estimated to be about 4.5. An increase in pH above 4.5 may potentially increase the risk of disproportionation.
The nature of data set [6]: Solubility of Compound A fumarate at 25° C. The class given is physicochemical. As to conditions: for solubility at 24 h: thermodynamic from solid. How it is done:
as §2

Where a name gives a salt, the structure may show the parent alone.

On to `FC(F)OC1=CC(C(F)(F)F)=CN2C[C@@]3(CCC(F)(F)c4c3ccnc4Cl)N=C12` [Compound A, (S)-1′-chloro-8-(difluoromethoxy)-8′,8′-difluoro-6-(trifluoromethyl)-7′,8′-dihydro-3H,6′H-spiro[imidazo[1,2-a]pyridine-2,5′-isoquinoline]], for which, in data set [1], the Clearance result was “low to very low” and the Oral bioavailability result was “good”.
In the case of `FC(F)OC1=CC(C(F)(F)F)=CN2C[C@@]3(CCC(F)(F)c4c3ccnc4Cl)N=C12` [free form of Compound A, (S)-1′-chloro-8-(difluoromethoxy)-8′,8′-difluoro-6-(trifluoromethyl)-7′,8′-dihydro-3H,6′H-spiro[imidazo[1,2-a]pyridine-2,5′-isoquinoline]], in data set [2], the Solubility entry is “poor”. In addition, the Dissolution rate entry in data set [2] (in biorelevant media) was “slow”. In data set [1], the Clearance result was “low” and the Oral bioavailability result was “moderate to high”.
For orientation: solubility means the concentration that dissolves in the medium under given conditions. As for `FC(F)OC1=CC(C(F)(F)F)=CN2C[C@@]3(CCC(F)(F)c4c3ccnc4Cl)N=C12` [Compound A fumarate, (S)-1′-chloro-8-(difluoromethoxy)-8′,8′-difluoro-6-(trifluoromethyl)-7′,8′-dihydro-3H,6′H-spiro[imidazo[1,2-a]pyridine-2,5′-isoquinoline]], the Hygroscopicity entry in data set [3] was “non hygroscopic”. The “Maximum water uptake by DVS” value in data set [3] (up to 95% RH at 25° C.) is recorded as “less than 0.1%”. Also, the “Disproportionation result (XRPD)” value in data set [4] (50° C./75% RH - 21 days), in data set [4] (60° C./80% RH - 21 days), in data set [4] (70° C./41% RH - 21 days) and in data set [4] (80° C./50% RH - 21 days) was “No free form peak” each time. Further, the pHmax result in data set [5] is reported as “about 4.5”. Further, the solubility at 24 h was at least 2000 µg/mL in data set [6] (25 °C, aqueous buffer, pH 1.2 to pH 4.7); above 2000 µg/mL in data set [6] (acetate buffer pH 4.7, aqueous buffer, 25° C., pH 4.7 buffer (acetate)); above 2000 µg/mL in data set [6] (hydrochloric acid buffer pH 1.2, simulated gastric fluid, 25° C., pH 1.2 buffer (hydrochloric acid)); above 2000 µg/mL in data set [6] (hydrochloric acid buffer pH 2, simulated gastric fluid, 25° C., pH 2 buffer (hydrochloric acid)); above 100000 µg/mL in data set [6] (organic solvent or mixture, 25° C., Acetonitrile); above 100000 µg/mL in data set [6] (organic solvent or mixture, 25° C., Ethanol). The solubility at 24 h in data set [6] (phosphate buffer pH 6.8, aqueous buffer, 25° C., pH 6.8 buffer (phosphate)) was 30 µg/mL; in data set [6] (25° C., Water) it was above 2000 µg/mL; in data set [6] (25° C., pH 2.0 (SGF), simulated gastric fluid), above 2000 µg/mL; in data set [6] (25° C., pH 5.8 (FeSSIF), fed state simulating intestinal fluid), 210 µg/mL; in data set [6] (25° C., pH 6.5 (FaSSIF), fasted state simulating intestinal fluid), 90 µg/mL. In addition, the “Solid residues obtained after 24h equilibration” value in data set [6] (pH values of 5.4 and above) is given as “correspond to the free form”.

Values taken from patent publication US20250134820A1, “PHARMACEUTICAL COMPOSITIONS” (Novartis AG, priority 2021, published 2025).
